The text below walks through data of patent US9284307B2, “Macrocyclic serine protease inhibitors” (Idenix Pharmaceuticals LLC, priority 2009, dated 2016).

One series addresses T1, CYP1A2 (Homo sapiens, UniProt P05177).
T1 construct: purchased BD Bioscience 459500
Briefly: In vitro CYP450 inhibition screen, fluorogenic assay, CYP1A2. In kind it is in vitro ADME. To be noted: probe substrate 3-Cyano-7-Ethoxycoumarin; average of two independent experiments. The procedure: (§1) CYP1A2 (BD Bioscience Cat #459500), CYP2B6 (BD Bioscience cat #459220), and CYP3A4 (BD Bioscience Cat #459100) inhibition fluorogenic assays were performed according to the manufacturer's protocol. Test articles were prepared as 10 mM stock solutions in DMSO.
(§2) Data represent the average of two independent experiments. A represents inhibition of 5 to 10%. B represents inhibition of >10% to 20%. C represents inhibition of >20% to 30%. D represents inhibition of >30% to 40%. I represents an IC50 of 5 to 9 μM.

Another series deals with T2, CYP2C9 (Homo sapiens, UniProt P11712).
T2 construct: purchased BD Bioscience
T2 sequence (P11712 whole entry): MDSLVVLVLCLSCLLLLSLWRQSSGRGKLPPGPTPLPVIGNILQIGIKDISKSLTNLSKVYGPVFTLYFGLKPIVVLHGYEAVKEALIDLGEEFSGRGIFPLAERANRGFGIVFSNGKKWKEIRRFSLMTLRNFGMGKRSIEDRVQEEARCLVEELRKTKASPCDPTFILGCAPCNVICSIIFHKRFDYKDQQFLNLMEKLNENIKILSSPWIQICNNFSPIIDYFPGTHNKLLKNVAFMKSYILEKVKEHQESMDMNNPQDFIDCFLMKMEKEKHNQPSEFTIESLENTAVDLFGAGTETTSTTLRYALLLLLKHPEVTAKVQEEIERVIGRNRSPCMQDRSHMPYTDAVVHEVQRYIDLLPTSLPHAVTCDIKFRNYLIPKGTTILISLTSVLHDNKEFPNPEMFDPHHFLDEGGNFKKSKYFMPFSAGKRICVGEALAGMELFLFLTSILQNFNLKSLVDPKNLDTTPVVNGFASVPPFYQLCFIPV
As to the kind of experiment: In vitro CYP450 inhibition screen, luminogenic assay, CYP2C9. It counts as in vitro ADME. To be noted: CYP2C9 enzyme (BD Bioscience), probe substrate Luciferin-H, average of two independent experiments, read-out: IC50 (μM) or % Inhibition at 20 μM, CYP450 2C9. Here is the method:
(§3) CYP2C8, 2C9, 2C19 and 2D6 (BD Bioscience) inhibition luminogenic assay was performed as per the protocol provided by Promega (P450-Glo™ Assay Technical Bulletin #TB325, P450-Glo™ Screening Systems Technical Bulletin #TB340). Test articles were prepared as 10 mM stock solutions in DMSO.
as §2

A further series concerns the target T3, CYP2C8 (Homo sapiens, UniProt P10632).
T3 construct: purchased BD Bioscience
Briefly: In vitro CYP450 inhibition screen, luminogenic assay, CYP2C8. To be noted: probe substrate Luciferin-ME, average of two independent experiments. In kind it is in vitro ADME. The procedure: as §3, §2

The subject of series [1] is HCV genotype 1a H77 strain subgenomic luciferase replicon (H1a-luc) in Huh-7 cells. As to the kind of experiment: Luciferase replicon assay, genotype 1a (H1a-luc). It counts as cell-based. To be noted: Hepatitis C virus, Huh-7, 72 h, read-out: EC50 Against Relpicon 1a. The procedure: The HCV luciferase replicon assay measures the ability of a test compound to inhibit HCV replication in cell culture after 3 days of treatment in a human hepatoma cell line (Huh-7) bearing a HCV replicon containing a luciferase-neomycin phosphotransferase fusion gene. The inhibition of HCV replication was measured by quantification of luciferase protein expression. Briefly, Huh-7 cells containing either the HCV genotype 1a H77 strain or genotype 1b Con1 strain subgenomic luciferase replicon (H1a-luc or Zluc, respectively) were grown in DMEM containing glucose, L-glutamine and sodium pyruvate, 10% fetal bovine serum (FBS), 100 IU/mL penicillin, 100 μg/mL streptomycin, 2 mM GlutaMAX, non-essential amino acids and 0.25 (H1a-luc) or 0.5 (Zluc) mg/mL G418. GlutaMAX was obtained from Invitrogen. Corp.; all other media reagents were obtained from Mediatech, Inc. For dose-response testing, the cells were seeded in 96-well plates at 1×10^4 (H1a-luc) or 7.5×10^3 (Zluc) cells/well in a volume of 50 μL, and incubated at 37° C./5% CO2. […] The assay plates were shaken for 3 minutes at room temperature and luciferase activity for each well was measured with a 1 sec read time on the Victor^3V multilabel counter using a 700 nm cut-off filter (Perkin Elmer). EC50 values were calculated from dose response curves from the resulting best-fit equations determined by Microsoft Excel and XLfit 4.1 software.
(In general: In antiviral work, replicon cells carry a viral genome segment that copies itself.)

A further series addresses T4, CYP2B6 (Homo sapiens, UniProt P20813).
T4 construct: purchased BD Bioscience 459220
Briefly: In vitro CYP450 inhibition screen, fluorogenic assay, CYP2B6. It counts as in vitro ADME. To be noted: probe substrate 7-Ethoxy-4-trifluoromethylcoumarin, average of two independent experiments. The procedure: as §1, §2

Series [2] can be described thus: Cytotoxicity evaluation (Cell Titer 96 AQueous One), Table 2. In kind it is cell-based. To be noted: human; cellular viability; cell line not given. Here is the method: For cytotoxicity evaluation, H1a-luc or Zluc cells were treated with compounds as described above and cellular viability was monitored using the Cell Titer 96 AQueous One Solution Cell Proliferation Assay (Promega). Plates were then read at 490 nm in a Victor^3V 1420 multilabel counter (Perkin Elmer) and CC50 concentrations were determined using Microsoft Excel and XLfit 4.1 software.

In series [3] the test system is HCV luciferase-bearing mutant replicon, NS3 A156S, in cured GS4.1 cells. Briefly: Luciferase replicon transient transfection assay, A156S mutant replicon. In kind it is cell-based. The procedure: (§4) The luciferase replicon transient transfection assay measures the ability of a test compound to inhibit the replication of a transiently-transfected HCV luciferase-bearing wild-type or mutant replicon in cured human hepatoma cells (cured GS4.1). The mutant replicons bear a specific single-site mutation in NS3 that is known to confer resistance to protease inhibitors currently in development. The inhibition of HCV replication was measured by quantification of luciferase protein expression. This assay has been validated using a panel of replicons bearing known protease inhibitor resistance mutations and their respective reference compounds. Briefly, subconfluent cured GS4.1 cells in OptiBuffer (ThermoElectron Corp.) were electroporated with 40 μg of wild-type or mutant luciferase-bearing HCV replicon RNA. The cells were then seeded in 96-well opaque white plates at 2.4×10^4 cells/well in 150 μL/well and incubated for 4 hours at 37° C./5% CO2. […] The plates were agitated on a rotating platform at room temperature for 3 minutes and read in a Victor^3V microplate reader (Perkin-Elmer) using a 700 nm cut-off filter with a 1 second read time. EC50 values were calculated from dose response curves from the resulting best-fit equations determined by Microsoft Excel and XLfit 4.1 software.

For series [4], the system named is HCV luciferase-bearing wild-type replicon in cured GS4.1 cells. As to the kind of experiment: Luciferase replicon transient transfection assay, wild-type replicon. It counts as cell-based. Here is the method: as §4
Another series addresses T5, CYP3A4 (Homo sapiens, UniProt P08684).
T5 construct: purchased BD Bioscience 459100
Briefly: In vitro CYP450 inhibition screen, fluorogenic assay, CYP3A4. It counts as in vitro ADME. To be noted: probe substrate 7-Benzyloxy-trifluoromethylcoumarin, average of two independent experiments, read-out: IC50 (μM) or % Inhibition at 20 μM, CYP450 3A4. Here is the method:
as §1, §2

What is called inhibition is the relative decrease from the control value, in per cent. By EC50 is commonly meant the concentration giving half of the maximal effect. Usually CC50 stands for the concentration that lowers cell viability or growth by half. A low value points to harm at low concentration. By IC50 is commonly meant the concentration that inhibits the measured activity by half.

T5 sequence (P08684 whole entry): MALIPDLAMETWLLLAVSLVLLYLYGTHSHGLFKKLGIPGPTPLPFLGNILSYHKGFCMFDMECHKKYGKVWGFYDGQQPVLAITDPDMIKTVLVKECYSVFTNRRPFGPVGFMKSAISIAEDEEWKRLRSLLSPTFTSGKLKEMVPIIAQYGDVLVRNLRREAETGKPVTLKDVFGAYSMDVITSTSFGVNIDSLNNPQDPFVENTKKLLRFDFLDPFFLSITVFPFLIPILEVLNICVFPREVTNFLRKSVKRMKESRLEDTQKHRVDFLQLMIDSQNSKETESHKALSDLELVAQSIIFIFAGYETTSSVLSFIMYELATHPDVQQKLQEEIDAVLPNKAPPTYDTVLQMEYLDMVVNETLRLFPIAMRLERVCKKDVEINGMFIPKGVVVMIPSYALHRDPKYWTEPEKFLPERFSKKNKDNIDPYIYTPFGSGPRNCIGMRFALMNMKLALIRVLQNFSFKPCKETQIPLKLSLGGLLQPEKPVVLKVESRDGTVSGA
T1 sequence (P05177 whole entry): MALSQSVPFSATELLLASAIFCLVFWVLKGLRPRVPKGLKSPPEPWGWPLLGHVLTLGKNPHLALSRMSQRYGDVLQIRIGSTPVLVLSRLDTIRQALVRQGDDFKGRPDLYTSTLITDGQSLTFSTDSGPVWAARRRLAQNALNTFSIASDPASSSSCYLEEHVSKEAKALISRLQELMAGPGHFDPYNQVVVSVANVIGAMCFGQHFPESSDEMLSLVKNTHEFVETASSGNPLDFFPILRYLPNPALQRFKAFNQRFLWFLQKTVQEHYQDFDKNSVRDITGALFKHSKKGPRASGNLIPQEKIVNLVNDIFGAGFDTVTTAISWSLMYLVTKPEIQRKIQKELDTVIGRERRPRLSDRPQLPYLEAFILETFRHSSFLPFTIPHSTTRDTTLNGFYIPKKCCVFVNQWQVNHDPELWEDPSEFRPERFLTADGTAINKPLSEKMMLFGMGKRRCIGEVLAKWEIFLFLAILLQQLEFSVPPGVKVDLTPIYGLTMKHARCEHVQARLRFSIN
T3 sequence (P10632 whole entry): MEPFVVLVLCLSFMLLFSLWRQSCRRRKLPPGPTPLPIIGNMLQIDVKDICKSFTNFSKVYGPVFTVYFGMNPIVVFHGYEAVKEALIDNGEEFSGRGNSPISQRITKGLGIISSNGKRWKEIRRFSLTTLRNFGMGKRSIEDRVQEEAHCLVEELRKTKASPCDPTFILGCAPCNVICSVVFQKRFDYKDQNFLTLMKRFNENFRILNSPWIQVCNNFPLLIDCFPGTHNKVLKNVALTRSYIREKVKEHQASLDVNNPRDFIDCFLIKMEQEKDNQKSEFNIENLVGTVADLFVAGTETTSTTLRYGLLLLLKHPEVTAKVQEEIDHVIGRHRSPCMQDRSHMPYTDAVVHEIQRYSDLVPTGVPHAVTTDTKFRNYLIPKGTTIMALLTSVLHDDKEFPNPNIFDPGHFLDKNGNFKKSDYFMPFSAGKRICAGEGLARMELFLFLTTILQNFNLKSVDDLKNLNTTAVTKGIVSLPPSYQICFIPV
T4 sequence (P20813 whole entry): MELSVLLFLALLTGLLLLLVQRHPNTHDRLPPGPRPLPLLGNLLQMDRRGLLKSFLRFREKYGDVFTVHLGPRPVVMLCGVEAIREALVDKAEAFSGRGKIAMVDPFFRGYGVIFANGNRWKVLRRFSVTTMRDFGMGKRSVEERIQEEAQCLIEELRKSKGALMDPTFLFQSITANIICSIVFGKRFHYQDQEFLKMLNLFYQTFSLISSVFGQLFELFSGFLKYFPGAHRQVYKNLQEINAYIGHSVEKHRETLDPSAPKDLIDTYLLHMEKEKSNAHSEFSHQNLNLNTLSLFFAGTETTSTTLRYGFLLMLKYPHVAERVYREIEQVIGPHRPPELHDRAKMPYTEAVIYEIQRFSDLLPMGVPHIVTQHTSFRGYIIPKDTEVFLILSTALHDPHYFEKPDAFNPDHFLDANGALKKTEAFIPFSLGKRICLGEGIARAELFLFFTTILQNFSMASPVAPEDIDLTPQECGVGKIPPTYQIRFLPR

`COc1ccc2c(O[C@H]3CC[C@H]4C(=O)N(C)CCCC/C=C\[C@@H]5C[C@@]5(C(=O)NS(=O)(=O)C5(C)CC5)NC(=O)[C@@H]4C3)cc(-c3nc(C(F)(F)F)cs3)nc2c1C` [Compound 51]: the “IC50 (μM) or % Inhibition at 20 μM, CYP450 1A2” value at CYP1A2 is “No Inhibition”. The inhibition at 20 µM lay within 20 to 30% on CYP2C9 and 10 to 20% on CYP2C8 (human, CYP2C8 enzyme (BD Bioscience), read-out: IC50 (μM) or % Inhibition at 20 μM, CYP450 2C8). Besides, the EC50 in series [1] is < 1 µM; in series [3] (Hepatitis C virus, 96 h, read-out: EC50(nm), A156S replicon), 0.0001 to 0.00035 µM; in [4] (Hepatitis C virus, 96 h, read-out: EC50(nm), Wild Type replicon) it was 0.00035 to 0.0011 µM. Also, the “IC50 (μM) or % Inhibition at 20 μM, CYP450 2B6” value against CYP2B6 is “No Inhibition”. Moreover, the CC50 at 72 h in [2] was 10 to 75 µM. For the same molecule, the “Fold Change, A156S replicon” value in series [3] (EC50 fold change, A156S replicon) is reported as 0.2 to 0.6. Besides, in series [4] (EC50 fold change, wild-type replicon), the “Fold Change, Wild Type replicon” value was found to be 1. In addition, the IC50 on CYP3A4 is 20 to 25 µM.

As for `C#Cc1csc(-c2cc(O[C@H]3CC[C@H]4C(=O)N(C)CCCC/C=C\[C@@H]5C[C@@]5(C(=O)NS(=O)(=O)C5(C)CC5)NC(=O)[C@@H]4C3)c3ccc(OC)c(C)c3n2)n1` [Compound 52, (1aR,3aR,5S,7aR,15aS,Z)-5-(2-(4-ethynylthiazol-2-yl)-7-methoxy-8-methylquinolin-4-yloxy)-9-methyl-N-(1-methylcyclopropylsulfonyl)-3,8-dioxo-1a,2,3,3a,4,5,6,7,7a,8,9,10,11,12,13,15a-hexadecahydro-1H-benzo[c]cyclopropa[g][1,6]diazacyclotetradecine-1a-carboxamide], the “IC50 (μM) or % Inhibition at 20 μM, CYP450 1A2” value on CYP1A2 is “No Inhibition”. The inhibition at 20 µM on CYP2C9 is 20 to 30%; on CYP2B6 (human, CYP2B6 enzyme (BD Bioscience cat #459220), probe 7-Ethoxy-4-trifluoromethylcoumarin, read-out: IC50 (μM) or % Inhibition at 20 μM, CYP450 2B6) it was 30 to 40%. For the same molecule, the “IC50 (μM) or % Inhibition at 20 μM, CYP450 2C8” value on CYP2C8 is reported as “No Inhibition”. Further, the EC50 in series [1] is < 1 µM. Moreover, in series [2], the CC50 at 72 h was > 75 µM. At CYP3A4, the IC50 was in the range of 15 to 20 µM.
